Data: patent US9770023B2, “Active compound combinations comprising phenylamidine compounds and further fungicides” (BAYER CROPSCIENCE AKTIENGESELLSCHAFT, priority 2014, dated 2017)

Key:
Alternaria solani = test: in vivo preventive test on Alternaria test (tomatoes)
Method: [table] To produce a suitable preparation of active compound, 1 part by weight of active compound is mixed with the stated amounts of solvent and emulsifier, and the concentrate is diluted with water to the desired concentration. To test for preventive activity, young plants are sprayed with the preparation of active compound at the stated rate of application. After the spray coating has dried on, the plants are inoculated with an aqueous spore suspension of Alternaria solani. The plants are then placed in an incubation cabinet at approximately 20° C. and a relative atmospheric humidity of 100%. The test is evaluated 3 days after the inoculation. 0% means an efficacy which corresponds to that of the untreated control while an efficacy of 100% means that no disease is observed.

[1] = tested on: Blumeria graminis f.sp. hordei; test: in vivo preventive Blumeria test (barley)
Method: [table] To produce a suitable preparation of active compound, 1 part by weight of active compound or active compound combination is mixed with the stated amounts of solvent and emulsifier, and the concentrate is diluted with water to the desired concentration. To test for preventive activity, young plants are sprayed with the preparation of active compound or active compound combination at the stated rate of application. After the spray coating has been dried, the plants are dusted with spores of Blumeria graminis f.sp. hordei. The plants are placed in the greenhouse at a temperature of approximately 18° C. and a relative atmospheric humidity of approximately 80% to promote the development of mildew pustules. The test is evaluated 7 days after the inoculation. 0% means an efficacy which corresponds to that of the untreated control, while an efficacy of 100% means that no disease is observed.

Phakopsora pachyrhizi = test: in vivo preventive test on Phakopsora test (soybeans)
Method: To produce a suitable preparation of active compound, 1 part by weight of active compound is mixed with the stated amounts of solvent and emulsifier, and the concentrate is diluted with water to the desired concentration. To test for preventive activity, young plants are sprayed with the preparation of active compound at the stated rate of application. After the spray coating has dried on, the plants are inoculated with an aqueous spore suspension of the causal agent of soybean rust (Phakopsora pachyrhizi) and stay for 24 h without light in an incubation cabinet at approximately 24° C. and a relative atmospheric humidity of 95%. The plants remain in the incubation cabinet at approximately 24° C. and a relative atmospheric humidity of approximately 80% and a day/night interval of 12 h.
The test is evaluated 7 days after the inoculation. 0% means an efficacy which corresponds to that of the untreated control, while an efficacy of 100% means that no disease is observed.

Puccinia triticina = test: in vivo preventive Puccinia triticina test (wheat); details: Table E1, 8 days after inoculation
Method: To produce a suitable preparation of active compound, 1 part by weight of active compound or active compound combination is mixed with the stated amounts of solvent and emulsifier, and the concentrate is diluted with water to the desired concentration.
To test for preventive activity, young plants are sprayed with the preparation of active compound or active compound combination at the stated rate of application. After the spray coating has been dried, the plants are sprayed with a spore suspension of Puccinia triticina. The plants remain for 48 hours in an incubation cabinet at approximately 20° C. and a relative atmospheric humidity of approximately 100%. The plants are placed in the greenhouse at a temperature of approximately 20° C. and a relative atmospheric humidity of approximately 80%.
The test is evaluated 8 days after the inoculation. 0% means an efficacy which corresponds to that of the untreated control, while an efficacy of 100% means that no disease is observed.

Pyrenophora teres = test: in vivo preventive Pyrenophora teres test (barley); details: Table F1, 8 days after inoculation
Method: (§1) [table] To produce a suitable preparation of active compound, 1 part by weight of active compound or active compound combination is mixed with the stated amounts of solvent and emulsifier, and the concentrate is diluted with water to the desired concentration. To test for preventive activity, young plants are sprayed with the preparation of active compound or active compound combination at the stated rate of application. After the spray coating has been dried, the plants are sprayed with a spore suspension of Pyrenophora teres. The plants remain for 48 hours in an incubation cabinet at approximately 20° C. and a relative atmospheric humidity of approximately 100%. The plants are placed in the greenhouse at a temperature of approximately 20° C. and a relative atmospheric humidity of approximately 80%. The test is evaluated 8 days after the inoculation. 0% means an efficacy which corresponds to that of the untreated control, while an efficacy of 100% means that no disease is observed.

Septoria tritici = test: in vivo preventive Septoria tritici test (wheat)
Method: as §1, with “suspension of Septoria tritici. The plants” for “suspension of Pyrenophora teres. The plants”, “of approximately 100% and afterwards for 60 hours at approximately 15° C. in a translucent incubation cabinet at a relative atmospheric humidity of approximately 100%. The” for “of approximately 100%. The”, “of approximately 15° C. and” for “of approximately 20° C. and”, “is evaluated 21 days after” for “is evaluated 8 days after”

Leptosphaeria nodorum = test: in vivo preventive Leptosphaeria nodorum test (wheat); details: Table C1, 8 days after inoculation
Method: as §1, with “suspension of Leptosphaeria nodorum. The plants” for “suspension of Pyrenophora teres. The plants”, “of approximately 25° C. and” for “of approximately 20° C. and”

[2] = Table B1, 7 days after inoculation, 40 ppm a.i.
[3] = Table D2, 7 days after inoculation, 0.5 ppm a.i.
[4] = Table D2, 7 days after inoculation, 1 ppm a.i.
[5] = Table G2, 21 days after inoculation, 40 ppm a.i.
[6] = Table A2, 3 days after inoculation, 2 ppm a.i.
[7] = Table A2, 3 days after inoculation, 4 ppm a.i.
[8] = Table B2, 7 days after inoculation, 10 ppm a.i.
[9] = Table B2, 7 days after inoculation, 40 ppm a.i.
[10] = Table D3, 7 days after inoculation, 2 ppm a.i.
[11] = Table G1, 21 days after inoculation, 20 ppm a.i.
[12] = Table A1, 3 days after inoculation, 1 ppm a.i.
[13] = Table D1, 7 days after inoculation, 0.1 ppm a.i.
[14] = Table D1, 7 days after inoculation, 0.2 ppm a.i.
[15] = Table D3, 7 days after inoculation, 10 ppm a.i.

Cn1cc(C(=O)Nc2cccc3c2[C@@H]2CC[C@H]3C2=C(Cl)Cl)c(C(F)F)n1 (racemic) [(B.6), benzovindiflupyr] was tested, and the “Efficacy in % found” value (Alternaria solani; Table A2, 3 days after inoculation, 0.5 ppm a.i.) was 22%, the “Efficacy in % found” value [1, 2] was 11% and the “Efficacy in % found” value (Phakopsora pachyrhizi; Table D2, 7 days after inoculation, 0.25 ppm a.i.) was 8%. The “Efficacy in % found” value (Phakopsora pachyrhizi; [3]) was 8%, the “Efficacy in % found” value (Phakopsora pachyrhizi; [4]) was 15% and the “Efficacy in % found” value (Puccinia triticina; 40 ppm a.i.) was 86%. The “Efficacy in % found” value (Pyrenophora teres; 80 ppm a.i.) was 57% and the “Efficacy in % found” value (Septoria tritici; [5]) was 38%.
OC(Cc1ccccc1Cl)(Cn1nc[nH]c1=S)C1(Cl)CC1 (centres unmarked) [(A.3), prothioconazole] was tested, and the “Efficacy in % found” value (Alternaria solani; [6]) was 0%, the “Efficacy in % found” value (Alternaria solani; [7]) was 24% and the “Efficacy in % found” value [1, 8] was 22%. The “Efficacy in % found” value [1, 9] was 22%, the “Efficacy in % found” value (Phakopsora pachyrhizi; Table D3, 7 days after inoculation, 1 ppm a.i.) was 0% and the “Efficacy in % found” value (Phakopsora pachyrhizi; [10]) was 35%. The “Efficacy in % found” value (Septoria tritici; [11]) was 0%.
CC(C)(C)C(O)(CCc1ccc(Cl)cc1)Cn1cncn1 (centres unmarked) [(A.4), tebuconazole] was tested, and the “Efficacy in % found” value (Alternaria solani; [12]) was 0%, the “Efficacy in % found” value (Phakopsora pachyrhizi; [13]) was 0% and the “Efficacy in % found” value (Phakopsora pachyrhizi; [14]) was 30%.
With Cn1cc(C(=O)Nc2ccc(F)cc2-c2ccc(Cl)c(Cl)c2)c(C(F)F)n1 [(B.1), bixafen] the “Efficacy in % found” value (Alternaria solani; [12]) was 40%, the “Efficacy in % found” value [1, 9] was 0% and the “Efficacy in % found” value (Leptosphaeria nodorum; 80 ppm a.i.) was 0%. The “Efficacy in % found” value (Phakopsora pachyrhizi; Table D1, 7 days after inoculation, 10 ppm a.i.) was 0%, the “Efficacy in % found” value (Phakopsora pachyrhizi; [15]) was 0% and the “Efficacy in % found” value (Septoria tritici; [5]) was 0%.
In the case of O=C(NCCc1ncc(C(F)(F)F)cc1Cl)c1ccccc1C(F)(F)F [(B.2), fluopyram], the “Efficacy in % found” value (Alternaria solani; [6]) is reported as 30% and the “Efficacy in % found” value [1, 9] is reported as 11%.
Cn1cc(C(=O)Nc2ccccc2-c2cc(F)c(F)c(F)c2)c(C(F)F)n1 [(B.3), fluxapyroxad] was tested, and the “Efficacy in % found” value (Leptosphaeria nodorum; 40 ppm a.i.) was 14% and the “Efficacy in % found” value (Septoria tritici; [5]) was 13%.
In the case of CC(C)c1ccc(Cl)cc1CN(C(=O)c1c(C(F)F)nn(C)c1F)C1CC1 [(B.8), N-(5-chloro-2-isopropylbenzyl)-N-cyclopropyl-3-(difluoromethyl)-5-fluoro-1-methyl-1H-pyrazole-4-carboxamide], the “Efficacy in % found” value (Alternaria solani; [12]) is reported as 45%, the “Efficacy in % found” value (Leptosphaeria nodorum; 20 ppm a.i.) is reported as 0% and the “Efficacy in % found” value (Phakopsora pachyrhizi; Table D1, 7 days after inoculation, 20 ppm a.i.) is reported as 0%. The “Efficacy in % found” value (Phakopsora pachyrhizi; [15]) was 0% and the “Efficacy in % found” value (Septoria tritici; [11]) was 29%.
CO/C=C(/C(=O)OC)c1ccccc1Oc1cc(Oc2ccccc2C#N)ncn1 [(C.1), azoxystrobin] was tested, and the “Efficacy in % found” value (Alternaria solani; Table A2, 3 days after inoculation, 1 ppm a.i.) was 46%, the “Efficacy in % found” value (Phakopsora pachyrhizi; [3]) was 20% and the “Efficacy in % found” value (Phakopsora pachyrhizi; [4]) was 68%. For the same compound, the “Efficacy in % found” value (Phakopsora pachyrhizi; Table D3, 7 days after inoculation, 0.5 ppm a.i.) was 23%, the “Efficacy in % found” value (Puccinia triticina; 10 ppm a.i.) was 71% and the “Efficacy in % found” value (Pyrenophora teres; 20 ppm a.i.) was 71%. The “Efficacy in % found” value (Septoria tritici; Table G2, 21 days after inoculation, 10 ppm a.i.) was 0%.
CO/C=C(/C(=O)OC)c1ccccc1COc1cccc(C(F)(F)F)n1 [(C.2), picoxystrobin] was tested, and the “Efficacy in % found” value ([1]; Table B1, 7 days after inoculation, 20 ppm a.i.) was 44% and the “Efficacy in % found” value (Phakopsora pachyrhizi; Table D2, 7 days after inoculation, 2 ppm a.i.) was 30%.
COC(=O)N(OC)c1ccccc1COc1ccn(-c2ccc(Cl)cc2)n1 [(C.3), pyraclostrobin] was tested, and the “Efficacy in % found” value (Leptosphaeria nodorum; 40 ppm a.i.) was 57% and the “Efficacy in % found” value (Septoria tritici; [5]) was 88%.
For CON=C(C(=O)OC)c1ccccc1CON=C(C)c1cccc(C(F)(F)F)c1 [(C.4), trifloxystrobin], the “Efficacy in % found” value (Alternaria solani; [12]) was 30%, the “Efficacy in % found” value (Alternaria solani; [7]) was 73% and the “Efficacy in % found” value [1, 8] was 11%. The “Efficacy in % found” value (Leptosphaeria nodorum; 40 ppm a.i.) was 14%, the “Efficacy in % found” value (Phakopsora pachyrhizi; [10]) was 0% and the “Efficacy in % found” value (Septoria tritici; Table G2, 21 days after inoculation, 20 ppm a.i.) was 75%.
In the case of CCN(C)/C=N/c1cc(C)c(Oc2ccccc2)cc1C [(I-d), N′-(2,5-dimethyl-4-phenoxyphenyl)-N-ethyl-N-methylimidoformamide], the “Efficacy in % found” value (Alternaria solani; Table A1, 3 days after inoculation, 0.5 ppm a.i.) is reported as 8%, the “Efficacy in % found” value (Alternaria solani; [12]) is reported as 15% and the “Efficacy in % found” value (Alternaria solani; Table A2, 3 days after inoculation, 0.1 ppm a.i.) is reported as 0%. For the same compound, the “Efficacy in % found” value (Alternaria solani; Table A2, 3 days after inoculation, 0.2 ppm a.i.) was 0%, the “Efficacy in % found” value [1, 2] was 33% and the “Efficacy in % found” value [1, 8] was 0%. The “Efficacy in % found” value ([1]; Table B2, 7 days after inoculation, 20 ppm a.i.) was 0%, the “Efficacy in % found” value [1, 9] was 0% and the “Efficacy in % found” value ([1]; Table B2, 7 days after inoculation, 80 ppm a.i.) was 22%. The “Efficacy in % found” value (Leptosphaeria nodorum; 80 ppm a.i.) was 29%, the “Efficacy in % found” value (Phakopsora pachyrhizi; Table D1, 7 days after inoculation, 0.05 ppm a.i.) was 0% and the “Efficacy in % found” value (Phakopsora pachyrhizi; [13]) was 23%. For the same compound, the “Efficacy in % found” value (Phakopsora pachyrhizi; [14]) was 86%, the “Efficacy in % found” value (Phakopsora pachyrhizi; Table D2, 7 days after inoculation, 0.05 ppm a.i.) was 0% and the “Efficacy in % found” value (Phakopsora pachyrhizi; Table D2, 7 days after inoculation, 0.1 ppm a.i.) was 0%. For the same compound, the “Efficacy in % found” value (Phakopsora pachyrhizi; Table D2, 7 days after inoculation, 0.2 ppm a.i.) was 23%, the “Efficacy in % found” value (Phakopsora pachyrhizi; Table D3, 7 days after inoculation, 0.05 ppm a.i.) was 0% and the “Efficacy in % found” value (Phakopsora pachyrhizi; Table D3, 7 days after inoculation, 0.1 ppm a.i.) was 0%. The “Efficacy in % found” value (Puccinia triticina; 40 ppm a.i.) was 57%, the “Efficacy in % found” value (Pyrenophora teres; 80 ppm a.i.) was 29% and the “Efficacy in % found” value (Septoria tritici; [11]) was 14%. The “Efficacy in % found” value (Septoria tritici; Table G1, 21 days after inoculation, 40 ppm a.i.) was 14%, the “Efficacy in % found” value (Septoria tritici; [5]) was 0% and the “Efficacy in % found” value (Septoria tritici; Table G2, 21 days after inoculation, 80 ppm a.i.) was 0%.
